Source: patent US4243678A, “Acylhydrocarbylaminoalkanoic acids, compositions and uses” (Byk Gulden Lomberg Chemische Fabrik GmbH, priority 1977, dated 1981)
Where two headings read alike, the source gives them in different places.

Key:
[1] = Antihepatotoxic effect: duration of hexobarbital sleep of the rat after liver damage by CCl4; conditions: rat, in vivo
Procedure: (§1) The compounds to be tested are administered 1 hour prior to the administration of CCl4 orally in a liquid volume of 10 ml/kg.
(§2) The antihepatotoxic effect of the compounds to be tested (sodium salts in aqueous solution) is determined by the reduction of the prolongation of sleeping period caused by the CCl4 liver cell damage in the groups treated, as compared with the prolongation of the sleeping period of the CCl4 control group (=100%). […]

liver damage by CCl4 = assay: as above; conditions: Rattus norvegicus, po; for ED25: read-out: ED25 antihepatotoxic effect (shortens hexobarbital narcosis by 25%); for ED50: read-out: ED50 antihepatotoxic effect (shortens hexobarbital narcosis by 50%)
Procedure: as §1, §2

[2] = Antiulcerogenic (stomach-protective) action, pylorus ligature and acetylsalicylic acid; type: in vivo, rat (female); conditions: in vivo, LD50 mouse i.p. / ED50 rat i.d.
Procedure: (§3) The ulcer provocation is carried out on rats which have been made to fast for 24 hours (female, 180 to 200 g) by ligature of the pylorus (under ether narcosis) and the oral application of 100 mg/10 ml/kg acetylsalicylic acid. The administration of the substances was carried out intraduodenally (2.5 ml/kg) immediately after the ligature of the pylorus. The closure of the wound was carried out by means of Michel clamps. 4 hours after this, the animals were autopsied (while inebriated with ether) by dislocation of the atlas, and the stomach was resected. The stomach, opened longitudinally, is fixed on a cork board and, using a stereomicroscope with an enlargement of 10×, the number and size (=diameter) of any ulcers present were determined. The product of the degree of severity (according to the following scale of points) and the number of ulcers was used as the individual ulcer index.
(§4) As a measure of antiulcerogenic effect the reduction in the mean ulcer index of each treated group, as compared with that of the control group (=100%), was used.

stomach ulcer = assay: as above; type: in vivo, rat (female); conditions: 4 h, rat, intraduodenally, read-out: ED50 antiulcerogenic action (dose which reduces the mean ulcer index by 50%)
Procedure: as §3, §4

[3] = test system: glucose formation from lactate and pyruvate in isolated perfused liver; assay: Inhibition of the formation of glucose from lactate and pyruvate in the isolated perfused rat liver; set-up: species or system rat (male Sprague-Dawley); conditions: for Glucose formation, % change: isolated perfused liver of fasting rats; for ED50 inhibition of formation of glucose from lactate and pyruvate: from 4 concentrations, 0.02 to 1.00 mmol/liter
Procedure: For this purpose young male Sprague-Dawley rats (160 to 200 g) are used. The rats are kept in cages of up to 5 animals in a temperature-controlled room (23° C.) with a fixed day/night rhythm (12/12 hours).
Food is withheld from the animals for from 20 to 22 hours prior to the operation. They are allowed to take water ad lib. The operation and the perfusion of the liver are carried out using the technique of R. Scholz et al. [Eur. J. Biochem. 38 (1973) 64 to 72]. The perfusion liquid used is Krebs-Henseleit bicarbonate buffer (pH 7.4), which is saturated with an oxygen/carbon dioxide mixture (95/5) and contains 1.6 mmol/liter of L-lactate and 0.2 mmol/liter of pyruvate. The perfusion liquid is pumped into the liver via a cannula inserted into the portal vein. The effluent perfusion liquid is collected via a cannula inserted into the Vena cava. The liver is perfused for about 2 hours. The test compounds are infused for 16 minutes each from the 32nd to the […] after the perfusion in increasing concentrations (0.02 to 1.00 mmol/liter).
Samples of the effluent perfusion liquid are collected at one-minute intervals and analyzed for glucose, lactate and pyruvate (using standard enzymatic methods). The percentages shown in Table VIII relate to the condition occurring before and after the administration of the compounds, the changes caused solely by lactate and pyruvate being set as being equal to 100%.

[4] = Determination of toxicity (lethal action on the mouse after intraperitoneal application); type: in vivo; conditions: in vivo, ip
Procedure: The toxicity investigations are carried out on female NMRI mice (body weight 22 to 26 g). The animals (5 animals per dose) are given food and water ad lib. Different doses of the substances are administered intraperitoneally. The duration of observation is 14 days. The LD50, i.e. the dose at which 50% of the animals die, is determined graphically from the dose/effect curve.

[5] = Influence on pancreatic secretion of the narcotized rat; type: in vivo, rat (male Sprague-Dawley); conditions: in vivo, LD50 mouse i.p. / ED50 rat i.d.
Text: (§5) Male Sprague-Dawley rats (body weight from 250 to 300 g) are narcotized with 1.2 g/kg urethane i.m. Then the abdominal cavity is opened medially, the bile duct is ligatured shortly above the place where it leads into the duodenum and also near to the hepatic duct, and both sections are catheterized towards the liver.
(§6) As in the rat all the pancreatic ducts lead out into the central section of the bile duct; it is possible in this way to discharge the pancreatic secretion separately from the distal (ligatured) section and the bile separately from the proximal section of the bile duct.
(§7) The quantities of pancreatic juice and bile juice obtained are measured at intervals of 30 minutes over a period from 2 hours before to 3 hours after the intraduodenal (V. jugularis externa) administration of the compounds to be tested (quantity of liquid administered 5 ml/kg).
(§8) The body temperature of the animals is maintained at 36° to 38° C. by means of electric blankets and radiation; the temperature is monitored rectally.
(§9) The liquid volumes of the 30-minute fractions after the administration of the substance are related in each case to the quantity of bile or pancreatic juice secreted prior to the application of the substance (=100%, mean of the last two measurements). The maximum percentage increase in the pancreatic or bile secretion is represented in dependence upon dose, and from this the ED50 is determined by interpolation.

pancreatic secretion = assay: as above; type: in vivo, rat (male Sprague-Dawley); conditions: 0.5 h, narcotized rat, i.d., liquid volume
Text: as §5, §6, §7, §8, §9

[6] = TQ LD50/ED25, antihepatotoxic effect, LD50 mouse i.p. / ED25 rat p.o., Table V
[7] = TQ LD50/ED50, antihepatotoxic effect, LD50 mouse i.p. / ED50 rat p.o., Table V
[8] = Table IV, read-out: TQ (LD50/ED50), antiulcerogenic action
[9] = 0.2 mmole/liter in the perfusate, Table VIII
[10] = Table IX, read-out: TQ LD50/ED50, antiulcerogenic action
[11] = Table X, read-out: TQ LD50/ED50, pancreatic secretion
[12] = 30 minute fraction, Table X, read-out: ED50 pancreatic secretion (dose which brings about an increase in pancreatic secretion by a maximum of 50%)
[13] = Table VII, read-out: TQ [LD50/ED50], pancreatic secretion
[14] = 30 min fraction, Table VII, read-out: ED50 pancreatic secretion (dose which brings about an increase in pancreatic secretion of a maximum of 50%)
[15] = TQ LD50/ED25, antihepatotoxic effect, LD50 mouse i.p. / ED25 rat p.o., Table XI

| Structure (SMILES) | selectivity ratio [1, 6] | selectivity ratio [1, 7] | ED25 (liver damage by CCl4) [mg/kg] | ED50 (liver damage by CCl4) [mg/kg] | selectivity ratio [2, 8] | ED50 (stomach ulcer; Table IV) [mg/kg] | LD50 at 336 h ([4]; mouse, Table IV) [mg/kg] | selectivity ratio [2, 10] | ED50 (stomach ulcer; Table IX) [mg/kg] | LD50 at 336 h ([4]; mouse i.p., Table IX) [mg/kg] | selectivity ratio [5, 11] | ED50 (pancreatic secretion; [12]) [mg/kg] | selectivity ratio [5, 13] | ED50 (pancreatic secretion; [14]) [mg/kg] | also measured |
| --- | --- | --- | --- | --- | --- | --- | --- | --- | --- | --- | --- | --- | --- | --- | --- |
| O=C(O)CCCCCN(C(=O)c1ccc(Cl)cc1)c1ccccc1-c1ccccc1 [Serial No. 24, 6-[p-chloro-N-(biphenyl-2-yl)benzamido]caproic acid] | ~14.4 | 9.3 | ~9 | 14 | ~3.3 | ~40 | 130 | – | – | – | – | – | – | – | Glucose formation, % change [3, 9]: -99%; ED50 inhibition of formation of glucose from lactate and pyruvate ([3]; Table VIII): 23 µg/mL |
| CC(C)C(=O)N(CCCCC(=O)O)c1cccc2ccccc12 [compound 51] | – | – | – | – | – | – | – | ~20 | < 10 | > 200 | – | – | – | – | – |
| CCOc1ccc(N(CCCC(=O)O)C(=O)c2ccc(Cl)cc2)c2ccccc12 [Serial No. 43, 4-{p-chloro-[N-(4-ethoxy-1-naphthyl)]benzamido}butyric acid] | – | – | – | – | – | – | – | 7 | 10 | 70 | 100 | 0.7 | – | – | – |
| O=C(O)CCCN(C(=O)c1cccc(C(F)(F)F)c1)c1ccccc1-c1ccccc1 [Serial No. 25, 4-[m-trifluoromethyl-N-(biphenyl-2-yl)benzamido]butyric acid] | 11 | 3.7 | 10 | 30 | 11 | 10 | 110 | – | – | – | – | – | 110 | 1 | Glucose formation, % change [3, 9]: -77%; ED50 inhibition of formation of glucose from lactate and pyruvate ([3]; Table VIII): 34 µg/mL |
| O=C(O)CCCN(C(=O)c1ccc(Cl)cc1)c1cccc2ccccc12 [Serial No. 38, 4-{p-chloro-[N(α-naphthyl)]benzamido}butyric acid] | – | – | ~5 | 40 | – | – | – | – | – | – | 56 | 2.5 | – | – | selectivity ratio [1, 15]: ~28; selectivity ratio ([1]; TQ LD50/ED50, antihepatotoxic effect, LD50 mouse i.p. / ED50 rat p.o., Table XI): 3.5; Glucose formation, % change ([3]; 0.2 mmol/liter in the perfusate, Table XIII): -48%; ED50 inhibition of formation of glucose from lactate and pyruvate ([3]; Table XIII): 81 µg/mL; LD50 at 336 h ([4]; mouse i.p., Table X): 140 mg/kg |
| O=C(O)CCCCN(C(=O)c1ccc(Cl)cc1)c1ccc2c(c1)CCC2 [compound 54] | – | – | – | – | – | – | – | ≤ 16 | ≥ 10 | 160 | – | – | – | – | – |
| O=C(O)CCCN(C(=O)c1ccc(Cl)cc1)c1ccccc1-c1ccccc1 [Serial No. 31, 4-[p-chloro-N-(biphenyl-2-yl)benzamido]butyric acid] | > 180 | 51.4 | < 1 | 3.5 | 5.1 | 35 | 180 | – | – | – | – | – | 180 | 1 | Glucose formation, % change [3, 9]: -79%; ED50 inhibition of formation of glucose from lactate and pyruvate ([3]; Table VIII): 43 µg/mL |
| CC1(C)[C@@H](OC(=O)CCC(=O)O)CC[C@]2(C)[C@H]3C(=O)C=C4[C@@H]5C[C@@](C)(C(=O)O)CC[C@]5(C)CC[C@@]4(C)[C@]3(C)CC[C@@H]12 [compound 19] | – | – | – | – | 2.4 | 50 | 120 | – | – | – | – | – | – | – | – |
| O=C(O)CCCN(C(=O)c1ccc(Cl)cc1)c1ccc(-c2ccccc2)cc1 [Serial No. 23, 4-[p-chloro-N-(biphenyl-4-yl)benzamido]butyric acid] | 8 | 5.5 | 15 | 22 | ~8 | ~15 | 120 | – | – | – | – | – | 120 | 1 | – |
| CC(CCC(=O)O)N(C(=O)c1ccc(Cl)cc1)c1cccc2ccccc12 (stereo not drawn) [Serial No. 45, 4-{p-chloro-[N-(α-naphthyl)]benzamido}valeric acid] | – | – | ~15 | – | – | – | – | > 18 | < 10 | 180 | ~180 | ~1 | – | – | selectivity ratio [1, 15]: ~12 |
| O=C(O)CCCN(C(=O)c1ccc(F)cc1)c1ccccc1-c1ccccc1 [Serial No. 26, 4-[p-fluoro-N-(biphenyl-2-yl)benzamido]butyric acid] | 131 | 75 | 1.6 | 2.8 | ~3.8 | ~55 | 210 | – | – | – | – | – | 84 | 2.5 | Glucose formation, % change [3, 9]: -51%; ED50 inhibition of formation of glucose from lactate and pyruvate ([3]; Table VIII): 76 µg/mL |
| O=C(O)CCCN(C(=O)c1ccc(Cl)c(Cl)c1)c1ccc2c(c1)CCC2 [compound 53] | – | – | 10 | – | – | – | – | > 18 | < 10 | 180 | > 180 | < 1 | – | – | selectivity ratio [1, 15]: 18 |
| COc1ccc(N(CCCC(=O)O)C(=O)c2ccc(Cl)cc2)cc1-c1ccccc1 [Serial No. 35, 4-[p-chloro-N-(6-methoxybiphenyl-3-yl)benzamido]butyric acid] | – | – | – | – | > 12 | < 10 | 120 | – | – | – | – | – | 80 | 1.5 | – |
| O=C(O)CCCCN(C(=O)c1ccccc1O)c1ccccc1-c1ccccc1 [Serial No. 32, 5-[o-hydroxy-N-(biphenyl-2-yl)benzamido]valeric acid] | – | – | – | – | > 20 | < 10 | > 200 | – | – | – | – | – | – | – | – |
| CCC(=O)N(CCCC(=O)O)C1CCCc2cc(OC)ccc21 (centres unmarked) [compound 52] | – | – | – | – | – | – | – | > 20 | < 10 | > 200 | > 200 | < 1 | – | – | – |
